Source: publication PMC11562385 (RSC Chemical Biology, 2024)
Read-outs that look alike come from different tables or passages of the source. Square brackets hold non-standard residues; d marks the D form. Peptide text beside a SMILES is read from it. * marks the point of attachment. Methacryloyl = C=C(C)C(=O)*; Dab = NCC[C@H](N)C(=O)O; Dap = NC[C@H](N)C(=O)O; Acryloyl = C=CC(=O)*

Columns and labels:
PD1:PDL1 interaction = target: T1, PD1:PDL1 interaction (Homo sapiens, UniProt Q15116); experiment: PD1/PDL1 immunoblocking ELISA (BPS Bioscience kit cat # 72005); format: binding
T1 construct: purchased BPS Bioscience 72005
T1 sequence (Q15116 25-167 limits assumed): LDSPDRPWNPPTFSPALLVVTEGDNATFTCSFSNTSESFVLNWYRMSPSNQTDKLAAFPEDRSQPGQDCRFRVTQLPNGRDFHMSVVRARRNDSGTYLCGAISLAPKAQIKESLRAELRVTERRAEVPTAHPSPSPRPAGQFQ
Experimental: Original loops with Phe/Trp and their Gly-derived analogs. Experimental EC50 values from inhibitory dose–response curves. Error bars indicate the mean ± SD, (n = 3). […]
SDS -Pages, buffers, and stain were purchased from Fisher
8. Immunoblocking ELISA Assay
Peptide inhibitor stock solutions were prepared in the concentration range of approximately 1-5 mM in DMSO. […]
plate was then washed and blocked with blocking buffer for 1 h at room temperature. Inhibitor solutions (ranging from 0.01 to 100 μM) and a blank solution (DMSO/PBS buffer) were added to designated wells. To initiate the […]
inhibitor solutions. After a 2 h incubation at room temperature, the plate was washed and blocked again for 10 min. Streptavidin-HRP (diluted at 1 : 1000) was added and incubated for 1 h at room temperature with gentle shaking. The plate was washed and blocked once more for 10 min. ELISA ECL substrate was added, and the resulting chemoluminescence was immediately measured in a luminometer (FLUOstar OPTIMA, BMG Labtech).
The luminescence value of the blank was subtracted from all readings according to the manufacturer's

[1] = Variable-temperature CD melting curves (CD-melts at 228±2 nm and 202±2 nm), individual and global two-state fits; format: physicochemical
Experimental: Recently, our laboratory brought forward a novel synthetic technology for the synthesis of acyclic β-hairpins with long loops. […] To compare hairpins’ stability, both regular (R) and bulged (B) scaffolds were crafted around a flexible 10-residue model loop (G4K2G4) and analyzed by CD (circular dichroism) spectroscopy (Fig. 2(A), see ESI, ^† Table S5). The […] structure of these model scaffolds 1avs.2a in solution were recorded in the far-UV CD spectra. […] The CD-exciton intensity was therefore used as a global probe to determine the %-folding of ADAPTins and to obtain melting curves corresponding to the hairpin fraying mechanism upon a gradual increase of temperature (0 to 95 °C).[68] […] In addition, NMR (nuclear magnetic resonance) chemical shifts were measured to determine variations in backbone […] structures (Fig. 2(B)). Secondary chemical shift deviations (CSDs) were calculated against random coil values[69] for both ADAPTin scaffolds 1vs.2 to verify that the hairpins were folded and if any variation of conformational rigidity exist within the loops. […]
Mass Spectrometer coupled to a Vanquish™ Neo UHPLC System (Thermo Scientific™). Peptide solutions for circular dichroism (CD) were prepared within a concentration range of 15-120 µM in a phosphate buffer (15 mM, […]
measured accurately using a JASCO V-670 spectrophotometer relied on the combined molar absorptivity of Trp (ε280 = 5580 M-1 .cm-1 per Trp) and Tyr (ε280 = 1280 M-1 .cm-1 per Tyr) to determine each sample's concentration.
CD spectra were recorded using a JASCO J-810 Spectropolarimeter equipped with a temperature controller module JASCO PFD-425S. Raw CD melting curves were processed in SpectraGryph, and fitting was performed in OriginPro 9.0 (Originlab Corporation, U.S.A.). NMR samples were prepared by reconstituting freeze -dried peptides (~ 1-5 mg) in mixture of water and DMSO -d6 (90:10 v/v) using 2,2-dimethyl-2-silapentane-5-sulfonate (DSS) as internal standard for chemical shifts (0 ppm), and spectra were recorded at 291 K (18 °C) unless otherwise stated. Chemical shifts ( δ) are reported in ppm. Samples for NMR experiments were prepared in a range of 3-10 mM of peptide in solution unless otherwise noted.

[2] = ELISA, mean of three independent experiments, read-out: EC50 Value
[3] = xlsx sheet of the peptide, individual fit of CD-melt

`C=CC(=O)NCC[C@H](NC(=O)[C@H](CC(=O)O)NC(=O)[C@H](Cc1ccccc1)NC(=O)[C@H](CCCNC(=N)N)NC(=O)[C@H](Cc1ccc(O)cc1)NC(=O)[C@H](CC(=O)O)NC(=O)[C@H](CCCNC(=N)N)NC(=O)[C@H](CCCNC(=N)N)NC(=O)[C@H](C)NC(=O)[C@@H](NC(=O)[C@H](Cc1c[nH]c2ccccc12)NC(=O)[C@@H](N)CCCNC(=N)N)C(C)C)C(=O)NCC(=O)N[C@@H](Cc1ccccc1)C(=O)N[C@@H](CC(=O)O)C(=O)N[C@@H](Cc1ccc(O)cc1)C(=O)N[C@@H](Cc1c[nH]c2ccccc12)C(=O)N[C@H](C(=O)N[C@@H](Cc1c[nH]c2ccccc12)C(=O)N[C@@H](CCC(=O)O)C(=O)O)C(C)C` [2ca] (H-RWVARRDYRFD[Dab](Acryloyl)GFDYWVWE-OH) gave an EC50 (PD1:PDL1 interaction; [2]) of 5220 nM.

Work on `C=CC(=O)NC[C@H](NC(=O)[C@H](CC(=O)O)NC(=O)[C@H](Cc1ccccc1)NC(=O)[C@H](CCCNC(=N)N)NC(=O)[C@H](Cc1ccc(O)cc1)NC(=O)[C@H](CC(=O)O)NC(=O)[C@H](CCCNC(=N)N)NC(=O)[C@H](CCCNC(=N)N)NC(=O)[C@H](C)NC(=O)[C@@H](NC(=O)[C@H](Cc1c[nH]c2ccccc12)NC(=O)[C@@H](N)CCCNC(=N)N)C(C)C)C(=O)NCC(=O)N[C@@H](Cc1ccccc1)C(=O)N[C@@H](CC(=O)O)C(=O)N[C@@H](Cc1ccc(O)cc1)C(=O)N[C@@H](Cc1c[nH]c2ccccc12)C(=O)N[C@H](C(=O)N[C@@H](Cc1c[nH]c2ccccc12)C(=O)N[C@@H](CCC(=O)O)C(=O)O)C(C)C` [2cb] (H-RWVARRDYRFD[Dap](Acryloyl)GFDYWVWE-OH) yielded an EC50 (PD1:PDL1 interaction; [2]) of 3980 nM.

Compound `C=C(C)C(=O)NCC[C@H](NC(=O)[C@H](CC(=O)O)NC(=O)[C@H](Cc1ccccc1)NC(=O)[C@H](CCCNC(=N)N)NC(=O)[C@H](Cc1ccc(O)cc1)NC(=O)[C@H](CC(=O)O)NC(=O)[C@H](CCCNC(=N)N)NC(=O)[C@H](CCCNC(=N)N)NC(=O)[C@H](C)NC(=O)[C@@H](NC(=O)[C@H](Cc1c[nH]c2ccccc12)NC(=O)[C@@H](N)CCCNC(=N)N)C(C)C)C(=O)NCC(=O)N[C@@H](Cc1ccccc1)C(=O)N[C@@H](CC(=O)O)C(=O)N[C@@H](Cc1ccc(O)cc1)C(=O)N[C@@H](Cc1c[nH]c2ccccc12)C(=O)N[C@H](C(=O)N[C@@H](Cc1c[nH]c2ccccc12)C(=O)N[C@@H](CCC(=O)O)C(=O)O)C(C)C` [2cd] (H-RWVARRDYRFD[Dab](Methacryloyl)GFDYWVWE-OH) has an EC50 (PD1:PDL1 interaction; [2]) of 9870 nM.

`CSCC[C@H](NC(=O)[C@H](CC(=O)O)NC(=O)CNC(=O)[C@H](CCCNC(=N)N)NC(=O)[C@H](Cc1ccc(O)cc1)NC(=O)[C@H](CC(=O)O)NC(=O)[C@H](CCCNC(=N)N)NC(=O)[C@H](CCCNC(=N)N)NC(=O)[C@H](C)NC(=O)[C@@H](NC(=O)[C@H](Cc1c[nH]c2ccccc12)NC(=O)[C@@H](N)CCCNC(=N)N)C(C)C)C(=O)NCC(=O)N[C@@H](Cc1ccccc1)C(=O)N[C@@H](CC(=O)O)C(=O)N[C@@H](Cc1ccc(O)cc1)C(=O)N[C@@H](Cc1c[nH]c2ccccc12)C(=O)N[C@@H](Cc1cnc[nH]1)C(=O)N[C@@H](Cc1c[nH]c2ccccc12)C(=O)N[C@@H](CCC(=O)O)C(=O)O` [2d] (H-RWVARRDYRGDMGFDYWHWE-OH) showed an EC50 (PD1:PDL1 interaction; [2]) of 5650 nM and an EC50 (PD1:PDL1 interaction; [PD1•PDL1] blocking EC50, Fig. 3B, cut-off bars of congeneric pairs (Phe/Trp vs Gly), n = 3) greater than 5000 nM.

Work on `CSCC[C@H](NC(=O)[C@H](CC(=O)O)NC(=O)[C@H](Cc1ccccc1)NC(=O)[C@H](CCCNC(=N)N)NC(=O)[C@H](Cc1ccc(O)cc1)NC(=O)[C@H](CC(=O)O)NC(=O)[C@H](CCCNC(=N)N)NC(=O)[C@H](CCCNC(=N)N)NC(=O)[C@H](C)NC(=O)[C@@H](NC(=O)[C@H](Cc1c[nH]c2ccccc12)NC(=O)[C@@H](N)CCCNC(=N)N)C(C)C)C(=O)NCC(=O)N[C@@H](Cc1ccccc1)C(=O)N[C@@H](CC(=O)O)C(=O)N[C@@H](Cc1ccc(O)cc1)C(=O)N[C@@H](Cc1c[nH]c2ccccc12)C(=O)N[C@@H](Cc1cnc[nH]1)C(=O)N[C@@H](Cc1c[nH]c2ccccc12)C(=O)N[C@@H](CCC(=O)O)C(=O)O` [2e] (H-RWVARRDYRFDMGFDYWHWE-OH) yielded an EC50 (PD1:PDL1 interaction; [2]) of 586 nM.

`CSCC[C@H](NC(=O)[C@H](CC(=O)O)NC(=O)[C@H](Cc1ccccc1)NC(=O)[C@H](CCCNC(=N)N)NC(=O)[C@H](Cc1ccc(O)cc1)NC(=O)[C@H](CC(=O)O)NC(=O)[C@H](CCCNC(=N)N)NC(=O)[C@H](CCCNC(=N)N)NC(=O)[C@H](CCCCN)NC(=O)[C@@H](NC(=O)[C@H](Cc1c[nH]c2ccccc12)NC(=O)[C@@H](N)CCCNC(=N)N)C(C)C)C(=O)NCC(=O)N[C@@H](Cc1ccccc1)C(=O)N[C@@H](CC(=O)O)C(=O)N[C@@H](Cc1ccc(O)cc1)C(=O)N[C@@H](Cc1c[nH]c2ccccc12)C(=O)N[C@H](C(=O)N[C@@H](Cc1c[nH]c2ccccc12)C(=O)N[C@@H](CCC(=O)O)C(=O)O)C(C)C` [2g] (H-RWVKRRDYRFDMGFDYWVWE-OH) gave an EC50 (PD1:PDL1 interaction; [2]) of 78 nM.

`CSCC[C@H](NC(=O)[C@H](CC(=O)O)NC(=O)CNC(=O)[C@H](CCCNC(=N)N)NC(=O)[C@H](Cc1ccc(O)cc1)NC(=O)[C@H](CC(=O)O)NC(=O)[C@H](CCCNC(=N)N)NC(=O)[C@H](CCCNC(=N)N)NC(=O)[C@@H](NC(=O)[C@@H](NC(=O)[C@H](Cc1c[nH]c2ccccc12)NC(=O)[C@@H](N)CCCNC(=N)N)C(C)C)C(C)C)C(=O)NCC(=O)N[C@@H](Cc1ccccc1)C(=O)N[C@@H](CC(=O)O)C(=O)N[C@@H](Cc1ccc(O)cc1)C(=O)N[C@@H](Cc1c[nH]c2ccccc12)C(=O)N[C@H](C(=O)N[C@@H](Cc1c[nH]c2ccccc12)C(=O)N[C@@H](CCC(=O)O)C(=O)O)C(C)C` [2h] (H-RWVVRRDYRGDMGFDYWVWE-OH) showed an EC50 (PD1:PDL1 interaction; [2]) of 781 nM.

Work on `CSCC[C@H](NC(=O)[C@H](CC(=O)O)NC(=O)[C@H](Cc1ccccc1)NC(=O)[C@H](CCCNC(=N)N)NC(=O)[C@H](Cc1ccc(O)cc1)NC(=O)[C@H](CC(=O)O)NC(=O)[C@H](CCCNC(=N)N)NC(=O)[C@H](CCCNC(=N)N)NC(=O)[C@@H](NC(=O)[C@@H](NC(=O)[C@H](Cc1c[nH]c2ccccc12)NC(=O)[C@@H](N)CCCNC(=N)N)C(C)C)C(C)C)C(=O)NCC(=O)N[C@@H](Cc1ccccc1)C(=O)N[C@@H](CC(=O)O)C(=O)N[C@@H](Cc1ccc(O)cc1)C(=O)N[C@@H](Cc1c[nH]c2ccccc12)C(=O)N[C@H](C(=O)N[C@@H](Cc1c[nH]c2ccccc12)C(=O)N[C@@H](CCC(=O)O)C(=O)O)C(C)C` [2i] (H-RWVVRRDYRFDMGFDYWVWE-OH) yielded an EC50 (PD1:PDL1 interaction; [2]) of 70 nM.

`CSCC[C@H](NC(=O)[C@H](CC(=O)O)NC(=O)[C@H](Cc1ccccc1)NC(=O)[C@H](CCCNC(=N)N)NC(=O)[C@H](Cc1ccc(O)cc1)NC(=O)[C@H](CC(=O)O)NC(=O)[C@H](CCCNC(=N)N)NC(=O)[C@H](CCCNC(=N)N)NC(=O)[C@H](C)NC(=O)[C@@H](NC(=O)[C@H](Cc1c[nH]c2ccccc12)NC(=O)[C@@H](N)CCCNC(=N)N)C(C)C)C(=O)NCC(=O)N[C@@H](Cc1ccccc1)C(=O)N[C@@H](CC(N)=O)C(=O)N[C@@H](Cc1ccc(O)cc1)C(=O)N[C@@H](Cc1c[nH]c2ccccc12)C(=O)N[C@H](C(=O)N[C@@H](Cc1c[nH]c2ccccc12)C(=O)N[C@@H](CCC(=O)O)C(=O)O)C(C)C` [2k] (H-RWVARRDYRFDMGFNYWVWE-OH) showed an EC50 (PD1:PDL1 interaction; [2]) of 170 nM.

For “RWCAR-RDYRFDMGFD-YWGWE [Native, peptide 'Native', no fold by CD]”, the “fold by CD signature (in words)” value ([1]; no hairpin exciton, no fit possible) was “No fold”.

In the case of “RWVA-RGGGGKKGGFD-YWVWE [2a, bulged (B) β-hairpin model scaffold]”, the ΔGF0 ([1]; CD-melt at 228±2 nm, individual two-state Gibbs-Helmholtz fit (Origin 9.0), 0-95 °C, phosphate buffer 15 mM pH 6.5 ± MeOH) is reported as -0.90 ± 0.006 kcal/mol, the Tm ([1]; Table S5, individual fit, 228±2 nm) is reported as 44.8 oC and the “Hairpin %-fold 291K” value ([1]; Table S5, individual fit, 291 K) is reported as 87 ± 1%. For the same compound, the “Hairpin %-fold 310K” value ([1]; Table S5, individual fit, 310 K) was 66 ± 1%, the “-TΔSF0” value ([1]; as E16) was 9.87 ± 0.1 kcal/mol and the ΔCpF0 ([1]; as E16) was -372 ± 10 cal.deg-1.mol-1. The ΔHF0 ([1]; as E16) was -10.8 ± 0.1 kcal/mol, the “melting temperature (TM) upshift vs regular hairpin 1a” value ([1]; calculated from CD-melts) was “about 10 °C” and the “DHm, fitted value from OriginPro” value [1, 3] was -18.1854 kcal/mol. The “Tm, fitted value from OriginPro” value [1, 3] was 317.92 K.
